We go through six molecules from patent publication US20070225255A1, “Use of Mitochondrially Targeted Antioxidant in the Treatment of Liver Diseases and Epithelial Cancers” (priority 2004, published 2007).

For series [1], the system named is patients having liver cirrhosis and a history of hepatitis C virus (HCV) infection. To be noted: patients with liver cirrhosis and HCV history (VitE group); cited from earlier work.
Series [2] relates to human cell lines intoxicated with DDC or BSO. The experiment in a line: ROS formation in cell lines intoxicated with DDC or BSO. The format is cell-based. As to conditions: simultaneous treatment at concentrations corresponding to EC50.
Excerpt: Another simple set of experiments employing hepatoma cell lines (e.g. HepG2 or Hep3B), the SNU-398 hepatocellular carcinoma-derived cell line (ATCC No. CRL-2233, LGC Promochem, Germany), the HUH-7 human carcinoma-derived cell line (Japanese collection of Research Biosources JCRB 0403) or the Tib-73 mouse embryonic liver cell line (ATCC TIB 73=BNL CL2 derived from BAL/c mouse, MD, USA) allows measurement of ROS production in these cells upon DDC intoxication.
To determine ROS production in for example hepatoma cell lines a standard experimental protocol according to Example 8 is applied. Tested hepatoma cells are grown in 96-well plates in culture medium (DMEM supplemented with 10% FCS, Gibco) to 80% confluency, subsequently washed with HBSS and incubated in the dark with DHE (10-50 μM) for 10 minutes at 37° C. Cells are then washed twice with Hank's balanced salt solution (HBSS, Gibco) to remove excess dye. Fluorescence is monitored in a fluorescence microscope (Olympus, Hamburg, Germany).
Alternatively, the generation of ROS is measured by using the fluoroprobe 5-(and-6)-chloromethyl-2′,7′-dichlorodihydrofluorescein diacetate acetyl ester (CM-H2DCFDA, Molecular Probes, Goettingen, Germany) which is converted to fluorescent dichlorofluorescien (DCF; Djordjevic T. et al., 2004, Antioxidants & Redox Signaling, 6: 713-720). To determine DCF fluorescence in a microplate reader (Tecan, Crailsheim, Germany), cells (e.g. HepG2, Hep3B or SNU-398) are grown in 96-well plates to 80% confluency. […] After several washes with HBSS to remove excess dye, fluorescence is monitored by using 480 nm excitation and 540 nm emission wavelength. DCF fluorescence is standardized to the number of viable cells using the Alamar Blue test according to the manufacturer's instructions (Biosource, Nivelles, Belgium). […] The absorbance is then measured at the wavelength of 580 μm.
For series [3] the following is noted: fed in drinking water for 3 to 7 days, 500 μM or 1 mM (MitoVit E 500 μM); cited from earlier work.
Series [4] deals with human epithelial cell cancer xenografts. As to the kind of experiment: Nude mice tumor xenografts. In kind it is in vivo, mouse. The procedure: Tumor cell lines or primary tumors that are xenografted subcutaneously according to standard methods (Li K. et al., 2003, Cancer Res., 63(13): 3593-3597) include colon adenocarcinomas, invasive ductal carcinomas of the breast, small and non-small cell lung carcinoma, prostate tumors, pancreatic tumors and stomach tumors.
Tumor-derived cell lines (grown in DMEM/10% FBS) are harvested in log-phase growth, washed twice with PBS, resuspended in 1 ml PBS (2.5×10^7 cells/ml), and injected subcutaneously into the right flank of a nude mouse (Hsd: athymic nu/nu, Harlan Winkelmann; aged between 5 and 6 weeks) at 5×10^6 cells/mouse (0.2 ml). Tumor growth is monitored every other day for the indicated periods (depending on the cell type). Tumor size is determined by the product of two perpendicular diameters and the height above the skin surface.

The test system of series [5] is DDC- or GF intoxicated mice. The experiment in a line: Toxic memory effect upon reintoxication with DDC or GF after recovery. The format is in vivo, mouse. As to conditions: 10 weeks DDC or GF, 4 weeks recovery, reexposure 24 to 72 hours with simultaneous treatment. An excerpt: Mouse livers respond to DDC- or GF intoxication first with ballooning of hepatocytes and formation of a denser keratin IF network. After around 6 weeks of intoxication, ballooned hepatocytes show a reduced density of the keratin IF and early MBs can be observed as fine granules associated with the keratin IF network. Continuation of intoxication leads to the appearance of large MBs typically located in the perinuclear cytoplasmic region. […] Upon cessation of intoxication, MBs disappear within several weeks. At 4 weeks of recovery from intoxication, there are groups of hepatocytes devoid of cytoplasmic keratin filaments but still containing small remnants of MBs at the cell periphery in association with desmosomes. If such mice are reexposed to DDC or GF numerous MBs reappear within 24 to 72 hours (Stumptner C. et al., 2001, J. Hepatol., 34: 665-675). This enhanced formation of MBs upon reintoxication was interpreted—in analogy to allergic reactions—as a toxic memory effect.
In another set of experiments, 10 week-intoxication of mice with DDC or GF is followed by 4 weeks of recovery.

Series [6] deals with mitochondria within isolated cells. As to conditions: in vitro; cited from earlier work.
The conditions of series [7]: according to Jauslin M. L. et al., 2003, FASEB J.; cited from earlier work.
The conditions of series [8]: intraperitoneal or i.v. (tail vein) injections, mice; cited from earlier work.
For series [9] the following is noted: fed to mice on a long term basis; cited from earlier work.
Another series deals with hepatoma cell lines. The experiment in a line: DDC intoxication of hepatoma cell lines. The format is cell-based. To be noted: hepatoma cell lines incubated for up to 72 hours in DMEM and 10% FCS. How it is done: The hepatoma cell lines incubated for up to 72 hours in culture medium (DMEM and 10% FCS, Gibco) supplemented with DDC (EC50=50 μg/ml of medium) or with up to 100 μM BSO are another suitable in vitro model mimicking observations made in patients suffering from the diseases according to the invention.

The test system of series [10] is choline deficient diet fed rats. As to conditions: cited from earlier work.

One may read the EC50 as the concentration at which the effect is half-maximal.

Take `Cc1c(C)c2c(c(C)c1O)CC[C@@](C)(CCC[C@H](C)CCC[C@H](C)CCCC(C)C)O2` [alpha-tocopherol]: the “liver function, hepatocarcinogenesis, cumulative survival” value in series [1] is “neither improvement of liver function, suppression of hepatocarcinogenesis, nor improvement of cumulative survival”.
As for `COc1c(O)c(C)c(CCCCCCCCCC[P+](c2ccccc2)(c2ccccc2)c2ccccc2)c(O)c1OC.CS(=O)(=O)[O-]` [MitoS], in [2], the ROS formation result is listed as “significant reduction in ROS formation”. Moreover, the “gross signs of toxicity” value in series [3] was “without any gross signs of toxicity”. In series [4], the growth of tumors result is recorded as “reduced growth of tumors”, the “necrosis of the tumors” value is “increased necrosis of the tumors” and the “vascularization of the tumor xenografts” value is reported as “decreased vascularization”. In addition, the “toxic memory effect (reappearance of MBs)” value in [5] is on record as “reduced or abolished”.
Take `Cc1c(C)c2c(c(C)c1O)CCC(C)(CC[P+](c1ccccc1)(c1ccccc1)c1ccccc1)O2` (stereo not drawn) [MitoVit E, [2-(3,4-dihydro-6-hydroxy-2,5,7,8-tetramethyl-2H-1-benzopyran-2-yl)ethyl]-triphenylphosphonium bromide]: the ROS formation entry in [2] is “significant reduction in ROS formation”. Further, the “gross signs of toxicity” value in [3] is recorded as “without any gross signs of toxicity”. Besides, the accumulation by mitochondria result in [6] was “rapidly and selectively accumulated by mitochondria”. Besides, in series [7], the EC50 is 416 nM. Further, the maximum tolerated dose in [8] is on record as 6 mg/kg/day. For the same molecule, the “toxic memory effect (reappearance of MBs)” value in series [5] is given as “reduced or abolished”. For the same molecule, in series [9], the “concentrations within the brain, heart, liver, and muscle” value is given as “potentially therapeutically effective concentrations”; the safety of feeding result is “fed safely”.
For `CCOC(=O)C1=C(C)NC(C)=C(C(=O)OCC)C1C` [DDC], the EC50 in the series with hepatoma cell lines was 50 μg/ml of medium.
In the case of `C[P+](c1ccccc1)(c1ccccc1)c1ccccc1` [TPMP, reference compound], the safety of feeding result in series [9] is listed as “fed safely”.
As for vitamin E, in series [10], the “development of fatty liver and oxidative stress” value is “neither prevented the development of fatty liver nor reduced the oxidative stress”.
